In patent US9493506B2 (Enanta Pharmaceuticals, Inc., priority 2010, dated 2016):

Assays:
Assay type in all cases: cell-based, hepatitis C virus (genotype 1a-H77)
[1] = tested on: HCV replicon with a D168E mutation in a 1a-H77 background; experiment: transient replicon assay, D168E mutation in 1a-H77 background; settings: Hepatitis C virus, read-out: EC50 in a transient replicon assay with a D168E mutation in a 1a-H77 background
Experimental: (§1) Replicon cell lines can be maintained in Dulbecco's modified Eagles medium (DMEM) containing 100 IU/ml penicillin, […] streptomycin (Invitrogen), […] G418 (Invitrogen) and 10% (v/v) fetal bovine serum (FBS). Replicon-containing cells can be seeded into 96 well plates at a density of 5000 cells per well in 100 μl DMEM containing 5% FBS. The next day, the compound can be initially diluted in dimethyl sulfoxide (DMSO) to generate a 200× stock of the inhibitor in a series of 8 half-log dilutions. The dilution series can then be diluted 100-fold in the medium containing 5% FBS. One hundred microliters of medium with the inhibitor can be added to each well of the overnight cell culture plate already containing 100 μl of DMEM with 5% FBS. In assays where the protein binding effect on inhibitor potency is assessed, the medium from the overnight cell culture plates can be replaced with 200 μl DMEM containing 40% human plasma (Innovative Research) plus 5% FBS as well as compound. The cells can be grown for 4 days in tissue culture incubators. The inhibitory effects of compounds against the replicons can be determined by measuring either the level of luciferase or HCV RNA. The luciferase assay can be conducted using a Luciferase Assay System kit (Promega) following the manufacturer's instructions. Briefly, the cell culture medium is removed and wells are washed with 200 μl of phosphate-buffered saline. To each well Passive Lysis buffer (Promega, Wis.) is added and the plates are incubated for 30 min with rocking to lyse the cells. Luciferin solution (50 μl, Promega) is added, and luciferase activity is measured with a Victor II luminometer (Perkin-Elmer). To determine HCV RNA levels, RNA extractions can be performed using the CellsDirect kit (Invitrogen), and the HCV RNA copy number can be measured using the SuperScript III Platinum One-Step qRT-PCR system (Invitrogen) and primers specific to the HCV 5′ nontranslated region. Cytotoxicity can be determined by the 3-[4,5-dimethylhiazol-2-yl]-2,5-diphenyltetrazolium bromide (MTT) colorimetric assay as follows. Replicon cells is plated in 96-well plates (4000 cells per well), the next day compound dilutions are added as in the activity assay, and the cells are grown in the presence of the inhibitors for 4 days. The MTT solution is diluted in DMEM containing 5% FBS and 60 μl of the solution is added to the cells. After 4 hrs, the cells are solubilized by the addition of 30 […]μl SDS (20% in 0.02 N HCl). The plates are incubated overnight and the optical density can be measured at 570 nm. To determine compounds' EC50 and TD50, luciferase, RNA inhibition and MTT data can be analyzed using the GraphPad Prism 4 software (equation: sigmoidal dose-response—variable slope).
(§2) The 1a-H77 replicon for transient assays further differs from the replicon in the stable cell line in that it contains NS2 through NS5B in the second cistron. The 1b-N strain replicon contains NS3 through NS5B in the second cistron, with adaptive mutations E1202G in NS3 and S2204I in NS5A. Mutagenesis can be performed using the Stratagene QuikChange XL II site-directed mutagenesis kit. Mutants' sequences can be confirmed, plasmids can be linearized with Xba I restriction enzyme and used as template for in vitro transcription reactions to make mutant replicon RNA for transient transfections. In vitro transcription can be performed with the T7 Megascript kit (Ambion).
(§3) Transient replicon transfections can be performed essentially as described by Mo et al. (Antimicrob Agents Chemother (2005) 49(10):4305-4314) with slight modifications. Fifteen micrograms of template RNA can be used to electroporate 3×10^6 cells in a 200 μl volume in a 0.2 cm cuvette. The cells used for transient transfections can be Huh7 cells obtained by curing replicon-containing cells with IFN (Mo et al., supra). Electroporation can be done with a Gene Pulser II (Bio-Rad, CA) at 480V and 25 μF, using two manual pulses. […]

[2] = tested on: HCV replicon with a D168V mutation in a 1a-H77 background; experiment: transient replicon assay, D168V mutation in 1a-H77 background; settings: Hepatitis C virus, read-out: EC50 in a transient replicon assay with a D168V mutation in a 1a-H77 background
Experimental: as §1, §2, §3

[3] = tested on: HCV replicon with a R155K mutation in a 1a-H77 background; experiment: transient replicon assay, R155K mutation in 1a-H77 background; settings: Hepatitis C virus, read-out: EC50 in a transient replicon assay with a R155K mutation in a 1a-H77 background
Experimental: as §1, §2, §3

Row | SMILES | EC50 [1] [nM] | EC50 [2] [nM] | EC50 [3] [nM]
1 | Cc1nc2ccc(F)cc2nc1O[C@@H]1C[C@H]2C(=O)N[C@]3(C(=O)NS(=O)(=O)C4CC4)C[C@H]3/C=C\CCCCC[C@H](NC(=O)OC(C)(C)C)C(=O)N2C1 [Example 20, tert-butyl (2R,6S,13aS,14aR,16aS,Z)-14a-(cyclopropylsulfonylcarbamoyl)-2-(7-fluoro-3-methylquinoxalin-2-yloxy)-5,16-dioxo-1,2,3,5,6,7,8,9,10,11,13a,14,14a,15,16,16a-hexadecahydrocyclopropa[e]pyrrolo[1,2-a][1,4]diazacyclopentadecin-6-ylcarbamate] | 3 to 20 | 25 to 50 | < 1
2 | Cc1nc2ccc(F)cc2nc1O[C@@H]1C[C@H]2C(=O)N[C@]3(C(=O)NS(=O)(=O)C4CC4)C[C@H]3/C=C\CCCCC[C@H](NC(=O)c3noc(C)c3C)C(=O)N2C1 [Example 21, N-((2R,6S,13aS,14aR,16aS,Z)-14a-(cyclopropylsulfonylcarbamoyl)-2-(7-fluoro-3-methylquinoxalin-2-yloxy)-5,16-dioxo-1,2,3,5,6,7,8,9,10,11,13a,14,14a,15,16,16a-hexadecahydrocyclopropa[e]pyrrolo[1,2-a][1,4]diazacyclopentadecin-6-yl)-4,5-dimethylisoxazole-3-carboxamide] | < 3 | < 25 | < 1
3 | Cc1nc2ccc(F)cc2nc1O[C@@H]1C[C@H]2C(=O)N[C@]3(C(=O)NS(=O)(=O)C4(C)CC4)C[C@H]3/C=C\CCCCC[C@H](NC(=O)c3noc(C)c3C)C(=O)N2C1 [Example 24, N-((2R,6S,13aS,14aR,16aS,Z)-2-(7-fluoro-3-methylquinoxalin-2-yloxy)-14a-(1-methylcyclopropylsulfonylcarbamoyl)-5,16-dioxo-1,2,3,5,6,7,8,9,10,11,13a,14,14a,15,16,16a-hexadecahydrocyclopropa[e]pyrrolo[1,2-a][1,4]diazacyclopentadecin-6-yl)-4,5-dimethylisoxazole-3-carboxamide] | < 3 | < 25 | < 1
4 | Cc1nc2cccc(F)c2nc1O[C@@H]1C[C@H]2C(=O)N[C@]3(C(=O)NS(=O)(=O)C4CC4)C[C@H]3/C=C\CCCCC[C@H](NC(=O)OC(C)(C)C)C(=O)N2C1 [Example 54, tert-butyl (2R,6S,13aS,14aR,16aS,Z)-14a-(cyclopropylsulfonylcarbamoyl)-2-(8-fluoro-3-methylquinoxalin-2-yloxy)-5,16-dioxo-1,2,3,5,6,7,8,9,10,11,13a,14,14a,15,16,16a-hexadecahydrocyclopropa[e]pyrrolo[1,2-a][1,4]diazacyclopentadecin-6-ylcarbamate] | 20 to 50 | 50 to 250 | 1 to 10
5 | Cc1nc2cccc(F)c2nc1O[C@@H]1C[C@H]2C(=O)N[C@]3(C(=O)NS(=O)(=O)C4CC4)C[C@H]3/C=C\CCCCC[C@H](NC(=O)c3ccon3)C(=O)N2C1 [Example 55, N-((2R,6S,13aS,14aR,16aS,Z)-14a-(cyclopropylsulfonylcarbamoyl)-2-(8-fluoro-3-methylquinoxalin-2-yloxy)-5,16-dioxo-1,2,3,5,6,7,8,9,10,11,13a,14,14a,15,16,16a-hexadecahydrocyclopropa[e]pyrrolo[1,2-a][1,4]diazacyclopentadecin-6-yl)isoxazole-3-carboxamide] | 20 to 50 | 50 to 250 | 1 to 10
6 | Cc1nc2cccc(F)c2nc1O[C@@H]1C[C@H]2C(=O)N[C@]3(C(=O)NS(=O)(=O)C4CC4)C[C@H]3/C=C\CCCCC[C@H](NC(=O)c3noc(C)c3C)C(=O)N2C1 [Example 57, N-((2R,6S,13aS,14aR,16aS,Z)-14a-(cyclopropylsulfonylcarbamoyl)-2-(8-fluoro-3-methylquinoxalin-2-yloxy)-5,16-dioxo-1,2,3,5,6,7,8,9,10,11,13a,14,14a,15,16,16a-hexadecahydrocyclopropa[e]pyrrolo[1,2-a][1,4]diazacyclopentadecin-6-yl)-4,5-dimethylisoxazole-3-carboxamide] | 3 to 20 | < 25 | < 1
7 | Cc1cc(C(=O)N[C@H]2CCCCC/C=C\[C@@H]3C[C@@]3(C(=O)NS(=O)(=O)C3(C)CC3)NC(=O)[C@@H]3C[C@@H](Oc4nc5c(F)cccc5nc4C)CN3C2=O)no1 [Example 58, N-((2R,6S,13aS,14aR,16aS,Z)-2-(8-fluoro-3-methylquinoxalin-2-yloxy)-14a-(1-methylcyclopropylsulfonylcarbamoyl)-5,16-dioxo-1,2,3,5,6,7,8,9,10,11,13a,14,14a,15,16,16a-hexadecahydrocyclopropa[e]pyrrolo[1,2-a][1,4]diazacyclopentadecin-6-yl)-5-methylisoxazole-3-carboxamide] | 3 to 20 | < 25 | < 1
8 | Cc1cc(C(=O)N[C@H]2CCCCC/C=C\[C@@H]3C[C@@]3(C(=O)NS(=O)(=O)C3CC3)NC(=O)[C@@H]3C[C@@H](Oc4nc5cc(F)cc(Br)c5nc4C)CN3C2=O)no1 [Example 98, N-((2R,6S,13aS,14aR,16aS,Z)-2-(5-bromo-7-fluoro-3-methylquinoxalin-2-yloxy)-14a-(cyclopropylsulfonylcarbamoyl)-5,16-dioxo-1,2,3,5,6,7,8,9,10,11,13a,14,14a,15,16,16a-hexadecahydrocyclopropa[e]pyrrolo[1,2-a][1,4]diazacyclopentadecin-6-yl)-5-methylisoxazole-3-carboxamide] | 3 to 20 | < 25 | 1 to 10
9 | Cc1nc2c(Br)cc(F)cc2nc1O[C@@H]1C[C@H]2C(=O)N[C@]3(C(=O)NS(=O)(=O)C4(C)CC4)C[C@H]3/C=C\CCCCC[C@H](NC(=O)c3ccon3)C(=O)N2C1 [Example 100, N-((2R,6S,13aS,14aR,16aS,Z)-2-(5-bromo-7-fluoro-3-methylquinoxalin-2-yloxy)-14a-(1-methylcyclopropylsulfonylcarbamoyl)-5,16-dioxo-1,2,3,5,6,7,8,9,10,11,13a,14,14a,15,16,16a-hexadecahydrocyclopropa[e]pyrrolo[1,2-a][1,4]diazacyclopentadecin-6-yl)isoxazole-3-carboxamide] | 3 to 20 | < 25 | < 1
10 | Cc1nc2c(Br)cc(F)cc2nc1O[C@@H]1C[C@H]2C(=O)N[C@]3(C(=O)NS(=O)(=O)C4(C)CC4)C[C@H]3/C=C\CCCCC[C@H](NC(=O)c3noc(C)c3C)C(=O)N2C1 [Example 102, N-((2R,6S,13aS,14aR,16aS,Z)-2-(5-bromo-7-fluoro-3-methylquinoxalin-2-yloxy)-14a-(1-methylcyclopropylsulfonylcarbamoyl)-5,16-dioxo-1,2,3,5,6,7,8,9,10,11,13a,14,14a,15,16,16a-hexadecahydrocyclopropa[e]pyrrolo[1,2-a][1,4]diazacyclopentadecin-6-yl)-4,5-dimethylisoxazole-3-carboxamide] | 3 to 20 | < 25 | < 1
